Results on twelve compounds are retold here after patent US20100298402A1, “STILBENE DERIVATIVES AS PSTAT3/IL-6 INHIBITORS” (ORCHID RESEARCH LABORATORIES LIMITED, priority 2007, published 2010).

Experiment [1] has as its system HCT 116 (colon), NCIH460 (lung) and U251 (glioma) cell lines. In words: Anti-cancer screen (MTT growth inhibition, 48 hours).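 Further: mean GI50 across the three cell lines.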 Format: cell-based. To be noted: Homo sapiens; HCT 116, NCIH460 and U251 cell lines; MTT after 48 hours of incubation. The procedure:
The experimental drugs were screened for anti-cancer activity in three cell lines using five concentrations for each compound. The cell lines—HCT 116 (colon), NCIH460 (lung) and U251 (glioma) were maintained in DMEM containing 10% fetal bovine serum. 96-well microtiter plates are inoculated with cells in 100 μL of cell suspension (5×10^4 cells/mL) for 24 hours at 37° C., 5% CO2, 95% air and 100% relative humidity. A separate plate with these cell lines is also inoculated to determine cell viability before the addition of the compounds (T0)
Following 24-hour incubation, test compounds were added to the 96 well plates. Each plate contains one of the above cell lines and the following samples in triplicate: five different dilutions (0.01, 0.1, 1, 10 and 100 μM) of four test compounds, appropriate dilutions of a cytotoxic standard and growth medium (untreated) wells. Test compounds were dissolved in DMSO to prepare 20 mM stock solutions on the day of drug addition and serial dilutions were carried out in complete growth medium at 2× strength, such that 100 μL added to the wells gave final concentrations (0.01, 0.1, 1, 10 and 100 μM) in the well. SAHA was used as the standard drug in these experiments.
For T0 measurement, 24 hours after seeding the cells, 20 μL of 3-(4,5-dimethyl-2-thiazolyl)-2,5-diphenyl-2H-tetrazolium (MTT) solution per well was added to the ‘T0’ plate and incubated for 3 hours at 37° C. in a CO2 incubator. The plate containing cells and test compounds was treated similarly after 48 hours of incubation. After 3 hours of MTT addition, well contents were aspirated carefully followed by addition of 150 μL DMSO per well. Plates were agitated to ensure dissolution of the formazan crystals in DMSO and absorbance was read at 570 nm (A570).
Percent growth (PG) is calculated relative to the control and zero measurement wells (T0) as follows:
PG values are plotted against drug concentration to derive the following: GI50 is the concentration required to decrease PG by 50% vs control; TGI is the concentration required to decrease PG by 100% vs control and LC50 is the concentration required to decrease PG by 50% vs T0. (Mosmann T. Rapid colorimetric assay for cellular growth and survival: application to proliferation and cytotoxicity assays. (J. Immunol. Methods. 1983, 65 (1-2), 55-63; Anne Monks et al); feasibility of high-flux anticancer drug screen using a diverse panel of cultured human tumor cell lines”. (JNCI, Vol. 83, No. 11, 1991). Results for growth inhibition of synthesized compounds are given in Table-1.

Experiment [2] has as its system IL-6 in supernatant of NCIH 460 cells. Put plainly: Measuring IL-6 in culture supernatants (ELISA). Format: cell-based. To be noted: Homo sapiens, NCI-H460, 5 hours incubation. On the technique in general: An ELISA detects its analyte on a solid surface through an enzyme-linked reagent.

Structures are written as SMILES.

What is called GI50 is the concentration that inhibits growth by half. A lower GI50 goes with greater sensitivity of the cells. For orientation: inhibition means how much of the control response was suppressed. A high value points to a strong effect.

In experiment [1], `COC(=O)/C(=C/c1ccc(OCC(O)CNCc2ccc(OC)cc2OC)cc1)c1cccc(Cl)c1` (centres unmarked) [Example 47, 3-{4-[3-(2,4-Dimethoxybenzylamino)-2-hydroxypropoxy]phenyl}-2-(3-chlorophenyl)acrylic acid methyl ester] showed a GI50 of 1.3 µM. For the same compound, at 10 µM the inhibition in experiment [2] was 59%.

In experiment [1], `COC(=O)/C(=C/c1cc(OC)cc(OC)c1)c1ccc(OCC(O)CNCc2ccc(OC)cc2OC)cc1` (centres unmarked) [Example 3, 2-{4-[3-(2,4-Dimethoxybenzylamino)-2-hydroxypropoxyl]phenyl}-3-(3,5-dimethoxyphenyl)acrylic acid methyl ester] displayed a GI50 of 4.1 µM. The inhibition at 10 µM in experiment [2] came to 67%.

As for `COC(=O)/C(=C/c1ccc(OCC(O)CNCc2ccccc2)cc1)c1ccc(OC)cc1` (centres unmarked) [Example 30, 3-{4-[3-(Benzylamino)-2-hydroxypropoxy]phenyl}-2-(4-(methoxy)phenyl)acrylic acid methyl ester], in experiment [1], the GI50 is 1.4 µM. The compound further had an inhibition at 10 µM in experiment [2] of 27.8%.

The compound `COC(=O)/C(=C/c1ccc(OCC(O)CNCCOc2ccccc2OC)cc1)c1ccccc1` (centres unmarked) [Example 42, 3-{4-[3-(2-Methoxyphenoxyethylamino)-2-hydroxypropoxy]phenyl}-2-phenylacrylic acid methyl ester] showed a GI50 in experiment [1] of 12 µM. This compound returned an inhibition at 10 µM in experiment [2] of 13%.

`COC(=O)/C(=C/c1ccc(Cl)cc1)c1ccc(OCC(O)CNCc2ccc(OC)cc2OC)cc1` (centres unmarked) [Example 22, 2-{4-[3-(2,4-Dimethoxybenzylamino)-2-hydroxypropoxy]phenyl}-3-(4-chlorophenyl)acrylic acid methyl ester] showed a GI50 in experiment [1] of 16.1 µM. The inhibition at 10 µM in experiment [2] turned out to be 59.8%.

As to `COC(=O)/C(=C/c1ccc(F)c(C)c1)c1ccc(OCC(O)CNCCOc2ccccc2OC)cc1` (centres unmarked) [Example 19, 2-{4-[3-(2-Methoxyphenoxyethylamino)-2-hydroxypropoxy]phenyl}-3-(4-fluoro-3-methylphenyl)acrylic acid methyl ester], in experiment [1], it took 4.9 µM to inhibit growth by half (GI50). Also, testing at 10 µM in experiment [2] gave an inhibition of 15.9%.

In turn, `COC(=O)/C(=C/c1ccc(OCC(O)CNCCOc2ccccc2OC)cc1)c1cccc(Cl)c1` (centres unmarked) [Example 48, 3-{4-[3-(2-Methoxyphenoxyethylamino)-2-hydroxypropoxy]phenyl}-2-(3-chlorophenyl)acrylic acid methyl ester] registered a GI50 in experiment [1] of 1.6 µM. This compound registered an inhibition at 10 µM in experiment [2] of 9%.

`COC(=O)/C(=C/c1ccccc1)c1ccc(OCC(O)CNCc2ccccc2)cc1` (centres unmarked) [Example 24, 2-{4-[3-(Benzylamino)-2-hydroxypropoxy]phenyl}-3-phenylacrylic acid methyl ester] had a GI50 in experiment [1] of 15.5 µM. In experiment [2], the inhibition at 10 µM is 0%.

Compound `COC(=O)/C(=C/c1cc(OC)cc(OC)c1)c1ccc(OCC(O)CNCc2ccc(F)cc2)cc1` (centres unmarked) [Example 20, 2-{4-[3-(4-Fluorobenzylamino)-2-hydroxypropoxy]phenyl}-3-(3,5-dimethoxyphenyl)acrylic acid methyl ester] yielded a GI50 in experiment [1] of 16.8 µM. The inhibition at 10 µM in experiment [2] stood at 0%.

In experiment [1], `COC(=O)/C(=C/c1ccc(F)c(F)c1)c1ccc(OCC(O)CNCc2ccc(OC)cc2OC)cc1` (centres unmarked) [Example 15, 2-{4-[3-(2,4-Dimethoxybenzylamino)-2-hydroxypropoxyl]phenyl}-3-(3,4-difluorophenyl)acrylic acid methyl ester] returned a GI50 of 2.8 µM. In experiment [2], this compound gave an inhibition at 10 µM of 44%.

Consider `COC(=O)/C(=C/c1cc(OC)c(OC)c(OC)c1)c1ccc(OCC(O)CNCc2ccc(OC(F)F)cc2)cc1` (centres unmarked) [Example 8, 2-{4-[3-(4-Difluoromethoxybenzylamino)-2-hydroxypropoxyl]phenyl}-3-(3,4,5-trimethoxyphenyl)acrylic acid methyl ester], for which, in experiment [1], halving of growth (GI50) required 3.6 µM. This compound registered an inhibition at 10 µM in experiment [2] of 44%.

For `COC(=O)/C(=C/c1cc(OC)cc(OC)c1)c1ccc(OCC(O)CNCc2ccc(OC(F)(F)F)cc2)cc1` (centres unmarked) [Example 4], in experiment [1], growth was halved (GI50) at 32.4 µM.
